From publication PMC10800100, “DoAP2/ERF89 activated the terpene synthase gene DoPAES in Dendrobium officinale and participated in the synthesis of β-patchoulene” (PeerJ, 2024)

Molecular target: T1, DoPAES (Dendrobium catenatum, UniProt A0A975TQG2)
T1 sequence (A0A975TQG2 1-550): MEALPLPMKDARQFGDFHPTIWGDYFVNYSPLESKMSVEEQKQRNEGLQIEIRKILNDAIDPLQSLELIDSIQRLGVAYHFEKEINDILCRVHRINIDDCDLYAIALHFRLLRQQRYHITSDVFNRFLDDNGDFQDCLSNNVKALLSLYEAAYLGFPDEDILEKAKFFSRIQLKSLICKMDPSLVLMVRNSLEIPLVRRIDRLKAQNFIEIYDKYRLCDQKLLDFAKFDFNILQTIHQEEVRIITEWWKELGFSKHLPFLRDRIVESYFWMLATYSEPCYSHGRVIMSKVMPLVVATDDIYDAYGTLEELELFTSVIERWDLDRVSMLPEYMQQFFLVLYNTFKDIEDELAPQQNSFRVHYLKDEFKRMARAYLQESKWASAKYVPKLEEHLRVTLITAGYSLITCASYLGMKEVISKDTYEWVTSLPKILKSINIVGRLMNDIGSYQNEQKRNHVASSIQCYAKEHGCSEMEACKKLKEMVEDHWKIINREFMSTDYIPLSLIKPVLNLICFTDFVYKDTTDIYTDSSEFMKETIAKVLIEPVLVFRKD
Assay: HS-SPME-GC-MS of products formed by crude recombinant protein
Format: biochemical
Conditions: 50 mmol/L Tris pH 7.5, 10 mmol/L MgCl2, 10 μmol/L MnCl2, 30 °C, 30 min

SMILES: CC(C)=CCC/C(C)=C/CC/C(C)=C/COP(=O)(O)OP(=O)(O)O [FPP]
- HS-SPME-GC-MS of products formed by crude recombinant protein: The products were then detected by GC-MS after adding substrate FPP.
